In one test the target is AChE (electric eel) (Electrophorus electricus, UniProt O42275). The experiment in a line: biochemical. Particulars: for inhibition at 100 µM: read-out: AChE (%) percentage of inhibition. The protocol: (§1) The in vitro testing of ChEs inhibition was performed according to the modified Ellman’s method. […] The percentage of inhibition activity was defined for all compounds.
(§2) The in vitro testing of ChEs inhibition was performed on 96-well microplate reader, Synergy^TM HT, BioTek, Vinnoski, USA.
(§3) The method originally developed by Ellman was used with slight modifications. The measurement of AChE and BuChE inhibitory activity was performed in a 96-well microplate reader. 170 μL of 0.1 M phosphate buffer (pH 7.0), 20 μL of AChE (electric eel) or BuChE (equine serum) in phosphate solution (2.3 U/mL), 20 μL of the tested compound in methanol and 20 μL of 10 mM (5,5′-dithiobis(2-nitrobenzoic acid), DTNB, Ellman’s Reagent) were mixed and incubated at 37 °C for 15 min.
Then 20 μL of 7.5 mM acetylthiocholine iodide (ATCI)/butyrylthiocholine iodide (BTCI) were added. […] Each measurement was repeated five times (n = 5). There was prepared one set of mixtures as a control (Abscontrol), which contained an equal volume of methanol instead of the tested samples.
(§4) The percentage ability to inhibit AChE and BuChE at the concentration 100 µM was tested for all compounds. The inhibitory rates IR (%) were calculated according to the Equation (1). IR = [1 - (Abssample/Abscontrol)] × 100(1)

Another test addresses T1, BuChE (equine serum) (Equus caballus, UniProt P81908).
T1 construct: 20 μL of AChE (electric eel) or BuChE (equine serum) in phosphate solution (2.3 U/mL); from tissue; host or cells: equine serum
The experiment in a line: BuChE inhibition, modified Ellman's method. Particulars: for inhibition at 100 µM / BuChE (%) percentage of inhibition: mean ± SD (n = 5); for IC50: n = 3 per concentration. The test is classed as biochemical. The protocol: as §1, §2, §3
Then 20 μL of 7.5 mM acetylthiocholine iodide (ATCI)/butyrylthiocholine iodide (BTCI) were added. […] […] There was prepared one set of mixtures as a control (Abscontrol), which contained an equal volume of methanol instead of the tested samples.
as §4
The values were calculated by non-linear regression of the concentration-response curve using GraphPad Prism 5.0 software, according to the Equation (2):Y = Ymin + (Ymax − Ymin)/(1 + [(X^HillSlope)/(IC50^HillSlope)])(2)

[1] abbreviates: at 100 µM, read-out: BuChE (%) percentage of inhibition.
The mark [2] stands for this setting: read-out: BuChE (%) percentage of inhibition, at 100 µM.

The values that follow come from paper PMC7180927, “Arylaminopropanone Derivatives as Potential Cholinesterase Inhibitors: Synthesis, Docking Study and Biological Evaluation” (Molecules, 2020).

Where two headings read alike, the source gives them in different places.

T1 sequence (P81908 whole entry): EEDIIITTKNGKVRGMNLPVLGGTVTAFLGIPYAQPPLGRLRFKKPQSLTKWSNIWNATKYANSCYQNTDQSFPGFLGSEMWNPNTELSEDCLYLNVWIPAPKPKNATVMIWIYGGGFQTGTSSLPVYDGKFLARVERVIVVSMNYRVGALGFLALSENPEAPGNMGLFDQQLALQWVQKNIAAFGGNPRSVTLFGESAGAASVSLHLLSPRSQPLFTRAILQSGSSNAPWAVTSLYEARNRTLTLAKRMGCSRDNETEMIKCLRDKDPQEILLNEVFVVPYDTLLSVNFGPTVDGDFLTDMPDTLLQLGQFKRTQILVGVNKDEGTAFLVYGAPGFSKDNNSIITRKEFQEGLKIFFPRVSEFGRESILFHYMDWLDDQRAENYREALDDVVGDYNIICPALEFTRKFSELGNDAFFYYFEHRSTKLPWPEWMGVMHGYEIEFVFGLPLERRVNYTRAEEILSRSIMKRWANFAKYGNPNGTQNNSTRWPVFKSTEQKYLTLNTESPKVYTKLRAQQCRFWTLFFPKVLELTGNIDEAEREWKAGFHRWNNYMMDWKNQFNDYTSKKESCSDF
Sequence of AChE (electric eel) (O42275 24-633): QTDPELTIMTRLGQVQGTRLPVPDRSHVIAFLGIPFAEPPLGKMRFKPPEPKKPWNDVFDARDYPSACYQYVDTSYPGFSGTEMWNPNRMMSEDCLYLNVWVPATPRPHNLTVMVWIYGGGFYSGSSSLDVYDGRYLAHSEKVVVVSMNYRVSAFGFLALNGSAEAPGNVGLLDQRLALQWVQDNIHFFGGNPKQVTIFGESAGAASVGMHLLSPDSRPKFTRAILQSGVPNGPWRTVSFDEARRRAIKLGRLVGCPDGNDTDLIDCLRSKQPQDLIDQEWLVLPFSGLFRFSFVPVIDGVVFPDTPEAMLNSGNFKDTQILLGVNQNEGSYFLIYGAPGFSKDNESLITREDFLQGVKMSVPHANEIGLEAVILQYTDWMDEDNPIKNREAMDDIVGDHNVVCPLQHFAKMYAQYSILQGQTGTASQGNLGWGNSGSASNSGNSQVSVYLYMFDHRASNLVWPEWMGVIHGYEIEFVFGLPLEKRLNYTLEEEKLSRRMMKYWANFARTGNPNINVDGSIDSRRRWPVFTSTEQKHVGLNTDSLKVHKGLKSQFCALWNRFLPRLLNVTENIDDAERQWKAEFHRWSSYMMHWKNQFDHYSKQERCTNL

One may read the IC50 as the concentration at which inhibition is half-maximal. Usually inhibition stands for how much of the control response was suppressed. As to `CCCCOC(=O)Nc1ccc(C(=O)CCN(CC)CCCC)cc1` [Compound 13, (3-{4-[(butoxycarbonyl)amino]phenyl}-3-oxopropyl)(butyl)ethylazanium chloride], the 50% inhibitory concentration (IC50) at AChE (electric eel) and on BuChE (equine serum) was > 100 µM throughout. Also, the inhibition at 100 µM was found to be 33.5 ± 3.4% on AChE (electric eel) (at 100 µM, mean ± SD (n = 5)) and 48.7 ± 2.6% at BuChE (equine serum) (setting [1]).

Take `CCCN(C)CCC(=O)c1ccc(NC(=O)OC)cc1` [Compound 14, (3-{4-[(methoxycarbonyl)amino]phenyl}-3-oxopropyl)(methyl)propylazanium chloride]: the IC50 on AChE (electric eel) and at BuChE (equine serum) was > 100 µM in each case. Further, the inhibition at 100 µM was determined as 42.2 ± 1.3% at AChE (electric eel) (at 100 µM, mean ± SD (n = 5)) and 22.3 ± 4.6% at BuChE (equine serum) (setting [1]).

With `CCCCN(CC)CCC(=O)c1ccc(NC(=O)OCC)cc1.Cl` [Compound 11, Butyl(3-{4-[(ethoxycarbonyl)amino]phenyl}-3-oxopropyl)ethylazanium chloride], the inhibition at 100 µM on AChE (electric eel) (at 100 µM, mean ± SD (n = 5)) is 24.6 ± 1.9%; at BuChE (equine serum) (setting [2]), > 50%. The “BuChE (%) percentage of inhibition” value at BuChE (equine serum) (at 100 µM) was 51.0 ± 2.9%.

As for `CCN(C)C(=O)Oc1cccc([C@H](C)N(C)C)c1` [Rivastigmine, reference compound], the inhibition at 100 µM was found to be 54.8 ± 4.4% on AChE (electric eel) and 72.9 ± 1.5% on BuChE (equine serum) (setting [1]).

Take `CCCOC(=O)Nc1ccc(C(=O)CCN2CCCCC2)cc1` [Compound 3, 1-(3-oxo-3-{4-[(propoxycarbonyl)amino]phenyl}propyl)piperidin-1-ium chloride]: the IC50 on AChE (electric eel) is 6.57 µM; at BuChE (equine serum) it was > 100 µM. The inhibition at 100 µM turned out to be 79.4 ± 0.3% on AChE (electric eel) (at 100 µM, mean ± SD (n = 5)) and 21 ± 2.5% at BuChE (equine serum) (setting [1]).

For the compound `CCCCN(C)CCC(=O)c1ccc(NC(=O)OCCC)cc1` [Compound 9, Butyl(methyl)(3-oxo-3-{4-[(propoxycarbonyl)amino]phenyl}propyl)azanium chloride], the concentration for half-maximal inhibition (IC50) at AChE (electric eel) and on BuChE (equine serum) was > 100 µM each time. The inhibition at 100 µM at AChE (electric eel) (at 100 µM, mean ± SD (n = 5)) was found to be 44.5 ± 1.1%; at BuChE (equine serum) (setting [1]) it was 29 ± 2.9%.

Consider `CCOC(=O)Nc1ccc(C(=O)CCN(CC)CC)cc1` [Compound 6, (3-{4-[(ethoxycarbonyl)amino]phenyl}-3-oxopropyl)diethylazanium chloride], for which the IC50 on AChE (electric eel) and on BuChE (equine serum) was > 100 µM in each case. The inhibition at 100 µM on AChE (electric eel) (at 100 µM, mean ± SD (n = 5)) was 42.2 ± 4.3%; at BuChE (equine serum) (setting [1]), 34.2 ± 2.6%.

In the case of `CCCCCN(C)CCC(=O)c1ccc(NC(=O)OCC)cc1.Cl` [Compound 16, (3-{4-[(ethoxycarbonyl)amino]phenyl}-3-oxopropyl)(methyl)pentylazanium chloride], the IC50 at AChE (electric eel) and on BuChE (equine serum) was > 100 µM in each case. Moreover, the “AChE (%) percentage of inhibition” value on AChE (electric eel) (at 100 µM, mean ± SD (n = 5)) is listed as 50.6 ± 1.8%. In addition, the inhibition at 100 µM was > 50% on AChE (electric eel) (at 100 µM, mean ± SD (n = 5)) and 46.3 ± 2% at BuChE (equine serum) (setting [1]).

In the case of `COC(=O)Nc1ccc(C(=O)CCN2CCCCC2)cc1` [Compound 1, 1-(3-{4-[(methoxycarbonyl)amino]phenyl}-3-oxopropyl)piperidin-1-ium chloride], the values for the IC50 on AChE (electric eel) and at BuChE (equine serum) were 12.7 µM and > 100 µM, respectively. Further, the inhibition at 100 µM turned out to be 74.1 ± 0.9% at AChE (electric eel) (at 100 µM, mean ± SD (n = 5)) and 10 ± 0.8% on BuChE (equine serum) (setting [1]).

As to `COc1ccc2c3c1O[C@H]1C[C@@H](O)C=C[C@@]31CCN(C)C2` [Galantamine, reference compound], the inhibition at 100 µM on BuChE (equine serum) (setting [1]) turned out to be 62.1 ± 1.4%.

In the case of `CCOC(=O)Nc1ccc(C(=O)CCN2CCOCC2)cc1` [Compound 4, 4-(3-{4-[(ethoxycarbonyl)amino]phenyl}-3-oxopropyl)morpholin-4-ium chloride], the IC50 at AChE (electric eel) and on BuChE (equine serum) was > 100 µM each time. Further, the inhibition at 100 µM is 16.1 ± 4.2% at AChE (electric eel) (at 100 µM, mean ± SD (n = 5)) and 17.8 ± 3.4% on BuChE (equine serum) (setting [1]).

Consider `CCOC(=O)Nc1ccc(C(=O)CCN2CCCCC2)cc1` [Compound 2, 1-(3-{4-[(ethoxycarbonyl)amino]phenyl}-3-oxopropyl)piperidin-1-ium chloride], for which the concentration for half-maximal inhibition (IC50) was 8.58 µM on AChE (electric eel) and > 100 µM at BuChE (equine serum). Also, the inhibition at 100 µM on AChE (electric eel) (at 100 µM, mean ± SD (n = 5)) came out at 77.8 ± 0.4%; on BuChE (equine serum) (setting [1]), 15.7 ± 1.9%.

For the compound `CCCCN(CC)CCC(=O)c1ccc(NC(=O)OC)cc1` [Compound 10, Butyl(ethyl)(3-{4-[(methoxycarbonyl)amino]phenyl}-3-oxopropyl)azanium chloride], the IC50 at AChE (electric eel) and on BuChE (equine serum) was > 100 µM each time. In addition, the inhibition at 100 µM at AChE (electric eel) (at 100 µM, mean ± SD (n = 5)) is 23.6 ± 2.3%; on BuChE (equine serum) (setting [1]), 43.6 ± 3%.

With `CCCCN(C)CCC(=O)c1ccc(NC(=O)OC)cc1` [Compound 7, Butyl(3-{4-[(methoxycarbonyl)amino]phenyl}-3-oxopropyl)methylazanium chloride], the IC50 at AChE (electric eel) and at BuChE (equine serum) was > 100 µM throughout. Besides, the inhibition at 100 µM on AChE (electric eel) (at 100 µM, mean ± SD (n = 5)) was found to be 38 ± 4.2%; on BuChE (equine serum) (setting [1]) it was 20.4 ± 5.8%.

`CCCOC(=O)Nc1ccc(C(=O)CCN2CCOCC2)cc1` [Compound 5, 4-(3-oxo-3-{4-[(propoxycarbonyl)amino]phenyl}propyl)morpholin-4-ium chloride]: the concentration for half-maximal inhibition (IC50) on AChE (electric eel) and on BuChE (equine serum) was > 100 µM throughout. The inhibition at 100 µM came to 25.9 ± 3.2% on AChE (electric eel) (at 100 µM, mean ± SD (n = 5)) and 14.4 ± 2.4% at BuChE (equine serum) (setting [1]).

Regarding `CCCCN(C)CCC(=O)c1ccc(NC(=O)OCC)cc1` [Compound 8, Butyl(3-{4-[(ethoxycarbonyl)amino]phenyl}-3-oxopropyl)methylazanium chloride], the IC50 on AChE (electric eel) and on BuChE (equine serum) was > 100 µM each time. For the same compound, the inhibition at 100 µM worked out at 23.5 ± 2.2% on AChE (electric eel) (at 100 µM, mean ± SD (n = 5)) and 4.7 ± 3% on BuChE (equine serum) (setting [1]).

For `CCCN(C)CCC(=O)c1ccc(NC(=O)OCC)cc1` [Compound 15, (3-{4-[(ethoxycarbonyl)amino]phenyl}-3-oxopropyl)(methyl)propylazanium chloride], the IC50 at AChE (electric eel) and on BuChE (equine serum) was > 100 µM each time. Also, the inhibition at 100 µM worked out at 45.3 ± 3.4% on AChE (electric eel) (at 100 µM, mean ± SD (n = 5)) and 36.8 ± 2.1% at BuChE (equine serum) (setting [1]).

Turning to `CCCCN(CC)CCC(=O)c1ccc(NC(=O)OCCC)cc1.Cl` [Compound 12, Butyl(ethyl)(3-{4-[(propoxycarbonyl)amino]phenyl}-3-oxopropyl)azanium chloride], the half-inhibitory concentration (IC50) on AChE (electric eel) and on BuChE (equine serum) was > 100 µM each time. The inhibition at 100 µM on AChE (electric eel) (at 100 µM, mean ± SD (n = 5)) was 38.4 ± 1.3%; on BuChE (equine serum) (setting [2]), > 50%. Further, the “BuChE (%) percentage of inhibition” value on BuChE (equine serum) (at 100 µM) turned out to be 51.1 ± 3.3%.
